Measurements taken from patent publication EP4818154A1, “EP4 AGONIST” (ONO Pharmaceutical Co., Ltd., priority 2023, dated 2025).

Tests used:
DSS colitis mouse model = test: Dextran sodium sulfate (DSS)-induced ulcerative colitis mouse model; format: in vivo, C57BL/6 mice; conditions: oral once a day Day 0 to Day 6, 2% DSS drinking water
Experimental: Adult C57BL/6 mice were used in this assay. The day on which 2% DSS drinking water started was defined as Day 0. A DSS solution was placed in a transparent plastic water bottle, and the mice were allowed to freely drink from Day 0 to Day 7 via a metal nozzle to induce ulcerative colitis. The test substance was orally administered once a day at a dose of 10 mL/kg for 7 days from Day 0 to Day 6. Stool conditions were observed every day from Day 0 to Day 7, and a disease activity index (DAI) was evaluated according to a reference score (Diarrhea score 0: normal stool, 1: loose stool, 2: diarrhea stool, 3: watery stool. Bloody stool score 0: normal stool, 1: brown mild bloody stool, 2: reddish color in stool, 3: melena); DAI score = diarrhea score + bloody stool score […].
The compounds of the present disclosure were tested in this assay. Efficacy in this model is evidenced by a decrease in the DAI score when compared to that of vehicle-treated animals (control group).

[1] = test system: monkey circulatory organ (blood pressure and heart rate); test: Monkey po telemetry test (blood pressure and heart rate); conditions: for safety margin (dose basis): monkey no observed effect level compared with the effective amount in the mouse model of DSS-induced colitis; for no observed effect level on the monkey circulatory organ (blood pressure and heart rate): single oral administration, unrestrained, awake cynomolgus monkeys
Experimental: Regarding an action on the monkey circulatory organ under unrestrained conditions and awakening, the test substance was orally administered once to male cynomolgus monkeys (2 animals/dose) implanted with a telemetry transmitter (M11, Data Sciences International, Inc.), and blood pressure (systolic, diastolic, and mean blood pressure) and heart rate were continuously measured. The evaluation time point was set to before administration, 0.5, 1, 2, 4, 8, 10, 12, 16, or 24 hours after administration, and the average value for 1 minute at the evaluation time point was analyzed.

[2] = test system: rat circulatory organ (blood pressure and heart rate); test: Rat po circulatory organ evaluation test (blood pressure and heart rate); conditions: for safety margin (dose basis): rat no observed effect level compared with the effective amount in the mouse model of DSS-induced colitis; for no observed effect level on the rat circulatory organ (blood pressure and heart rate): single oral administration, unrestrained, awake rats
Excerpt: Regarding an action on the rat circulatory organ under unrestrained conditions and awakening, the test substance was orally administered once to Crl:CD (SD) male rats (4 animals/group) implanted with a telemetry transmitter (HD-S10, Data Sciences International, Inc.) or catheterized in the left carotid artery, and blood pressure (systolic, diastolic, and mean blood pressure) and heart rate were continuously measured.

Row | Structure (SMILES) | suppression of the control group score (DAI score) (DSS colitis mouse model; 0.3 mpk) | suppression of the control group score (DAI score) (DSS colitis mouse model; 1 mpk) | safety margin (dose basis) [1] | no observed effect level on the monkey circulatory organ (blood pressure and heart rate) [1] | safety margin (dose basis) [2] | no observed effect level on the rat circulatory organ (blood pressure and heart rate) [2] | suppression of the control group score (DAI score) (DSS colitis mouse model; 3 mpk)
1 | CN(CCCCC[C@H](O)/C=C/[C@H]1CCC(=O)N1CCSc1nc(C(=O)O)cs1)c1ccccc1 [Example 2, 2-({2-[(2R)-2-{(1E,3S)-3-Hydroxy-8-[methyl(phenyl)amino]-1-octen-1-yl}-5-oxo-1-pyrrolidinyl]ethyl}thio)-1,3-thiazole-4-carboxylic acid] | 50% | – | – | – | – | – | –
2 | O=C(O)CCCSCCN1C(=O)CC[C@@H]1/C=C/[C@@H](O)Cc1cccc(NC(=O)c2ccccc2)c1 [Example 10, 4-({2-[(2R)-2-{(1E,3S)-4-[3-(Benzoylamino)phenyl]-3-hydroxy-1-buten-1-yl}-5-oxo-1-pyrrolidinyl]ethyl}thio)butanoic acid] | – | 50% | – | – | – | – | –
3 | CN(CCCCC[C@H](O)/C=C/[C@H]1CCC(=O)N1CCSc1nc(C(=O)NCCS(=O)(=O)O)cs1)c1ccccc1 [2-({[2-({2-[(2R)-2-{(1E,3S)-3-Hydroxy-8-[methyl(phenyl)amino]-1-octen-1-yl}-5-oxo-1-pyrrolidinyl]ethyl}thio)-1,3-thiazol-4-yl]carbonyl}amino)ethanesulfonic acid] | 50% | – | 10 times | 3 mg/kg | 100 times | 30 mg/kg | –
4 | O=C(CCCSCCN1C(=O)CC[C@@H]1/C=C/[C@@H](O)Cc1cccc(NC(=O)c2ccccc2)c1)NCCS(=O)(=O)O [2-{[4-({2-[(2R)-2-{(1E,3S)-4-[3-(Benzoylamino)phenyl]-3-hydroxy-1-buten-1-yl}-5-oxo-1-pyrrolidinyl]ethyl}thio)butanoyl]amino}ethanesulfonic acid] | – | – | – | – | 10 times | 30 mg/kg | 50%
5 | COc1nccnc1SCCCCC[C@H](O)/C=C/[C@H]1CCC(=O)N1CCSc1nc(C(=O)NCCS(=O)(=O)O)cs1 [Example 12] | – | – | 10 times | 30 mg/kg | 10 times | 30 mg/kg | 50%
6 | O=C(NCCS(=O)(=O)O)c1csc(SCCN2C(=O)CC[C@@H]2/C=C/[C@@H](O)CCCCCSc2ccccn2)n1 [Example 11, 2-[({2-[(2-{(2R)-2-[(1E,3S)-3-Hydroxy-8-(2-pyridinylthio)-1-octen-1-yl]-5-oxo-1-pyrrolidinyl}ethyl)thio]-1,3-thiazol-4-yl}carbonyl)amino]ethanesulfonic acid] | 50% | – | 1 times | 0.3 mg/kg | 100 times | 30 mg/kg | –
7 | O=C(O)c1csc(SCCN2C(=O)CC[C@@H]2/C=C/[C@@H](O)CCCCCSc2ccccn2)n1 [Example 1, 2-[(2-{(2R)-2-[(1E,3S)-3-Hydroxy-8-(2-pyridinylthio)-1-octen-1-yl]-5-oxo-1-pyrrolidinyl}ethyl)thio]-1,3-thiazole-4-carboxylic acid] | 50% | – | – | – | – | – | –
